# Data as given in PubChem BioAssay (NCI).
#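 Dose response: 5 concentrations. Exposure: 48 h. Format: 96-well plates. Endpoint: linear interpolation; highest concentration if not reached. Here, GI50 denotes the concentration required for 50% inhibition of growth. TGI is the concentration that stops growth completely.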
# Legend:
# Test in all cases: NCI tumour cell line growth inhibition, 48 h
# 786-0 renal = system: 786-0 renal
# A498 renal = system: A498 renal
# A549 NSCLC = system: A549 NSCLC
# ACHN renal = system: ACHN renal
# BT-549 breast = system: BT-549 breast
# CAKI-1 renal = system: CAKI-1 renal
# CCRF-CEM leukemia = system: CCRF-CEM leukemia
# COLO 205 colon = system: COLO 205 colon
# DU-145 prostate = system: DU-145 prostate
# EKVX NSCLC = system: EKVX NSCLC
# HCC-2998 colon = system: HCC-2998 colon
# HCT-116 colon = system: HCT-116 colon
# HCT-15 colon = system: HCT-15 colon
# HL-60(TB) leukemia = system: HL-60(TB) leukemia
# HOP-62 NSCLC = system: HOP-62 NSCLC
# HOP-92 NSCLC = system: HOP-92 NSCLC
# HS 578T breast = system: HS 578T breast
# HT29 colon = system: HT29 colon
# IGROV1 ovarian = system: IGROV1 ovarian
# K-562 leukemia = system: K-562 leukemia
# KM12 colon = system: KM12 colon
# LOX IMVI melanoma = system: LOX IMVI melanoma
# M14 melanoma = system: M14 melanoma
# MALME-3M melanoma = system: MALME-3M melanoma
# MDA-MB-231 breast = system: MDA-MB-231 breast
# MDA-MB-435 = system: MDA-MB-435
# MOLT-4 leukemia = system: MOLT-4 leukemia
# NCI-H226 lung = system: NCI-H226 lung
# NCI-H23 lung = system: NCI-H23 lung
# NCI-H460 lung = system: NCI-H460 lung
# NCI-H522 lung = system: NCI-H522 lung
# NCI/ADR-RES ovarian = system: NCI/ADR-RES ovarian
# OVCAR-3 ovarian = system: OVCAR-3 ovarian
# OVCAR-4 ovarian = system: OVCAR-4 ovarian
# OVCAR-5 ovarian = system: OVCAR-5 ovarian
# OVCAR-8 ovarian = system: OVCAR-8 ovarian
# PC-3 prostate = system: PC-3 prostate
# RPMI-8226 leukemia = system: RPMI-8226 leukemia
# RXF 393 renal = system: RXF 393 renal
# SF-268 CNS = system: SF-268 CNS
# SF-295 CNS = system: SF-295 CNS
# SF-539 CNS = system: SF-539 CNS
# SK-MEL-2 melanoma = system: SK-MEL-2 melanoma
# SK-MEL-28 melanoma = system: SK-MEL-28 melanoma
# SK-MEL-5 melanoma = system: SK-MEL-5 melanoma
# SK-OV-3 ovarian = system: SK-OV-3 ovarian
# SN12C renal = system: SN12C renal
# SNB-19 CNS = system: SNB-19 CNS
# SNB-75 CNS = system: SNB-75 CNS
# SW-620 colon = system: SW-620 colon
# T-47D breast = system: T-47D breast
# TK-10 renal = system: TK-10 renal
# U251 CNS = system: U251 CNS
# UO-31 renal = system: UO-31 renal
# MCF7 breast = system: MCF7 breast
# SR leukemia = system: SR leukemia
# UACC-257 melanoma = system: UACC-257 melanoma
# UACC-62 melanoma = system: UACC-62 melanoma
smiles,measurement,setting,value
C=C1C(=O)O[C@H]2[C@H]1CC/C(Cn1cc(-c3ccccc3C(F)(F)F)nn1)=C\CC[C@@]1(C)O[C@@H]21,GI50,786-0 renal,1.84 µM
same,TGI,786-0 renal,3.92 µM
same,GI50,A498 renal,3.86 µM
same,TGI,A498 renal,15.9 µM
same,GI50,A549 NSCLC,7.23 µM
same,TGI,A549 NSCLC,21.8 µM
same,GI50,ACHN renal,1.45 µM
same,TGI,ACHN renal,2.93 µM
same,GI50,BT-549 breast,2.4 µM
same,TGI,BT-549 breast,8.28 µM
same,GI50,CAKI-1 renal,1.31 µM
same,TGI,CAKI-1 renal,2.63 µM
same,GI50,CCRF-CEM leukemia,0.767 µM
same,TGI,CCRF-CEM leukemia,10.1 µM
same,GI50,COLO 205 colon,1.98 µM
same,TGI,COLO 205 colon,3.81 µM
same,GI50,DU-145 prostate,1.42 µM
same,TGI,DU-145 prostate,2.78 µM
same,GI50,EKVX NSCLC,2.32 µM
same,TGI,EKVX NSCLC,7.12 µM
same,GI50,HCC-2998 colon,1.85 µM
same,TGI,HCC-2998 colon,3.47 µM
same,GI50,HCT-116 colon,1.26 µM
same,TGI,HCT-116 colon,2.74 µM
same,GI50,HCT-15 colon,1.05 µM
same,TGI,HCT-15 colon,2.43 µM
same,GI50,HL-60(TB) leukemia,2.58 µM
same,TGI,HL-60(TB) leukemia,10.1 µM
same,GI50,HOP-62 NSCLC,4.72 µM
same,TGI,HOP-62 NSCLC,18.7 µM
same,GI50,HOP-92 NSCLC,1.48 µM
same,TGI,HOP-92 NSCLC,3.47 µM
same,GI50,HS 578T breast,3.57 µM
same,TGI,HS 578T breast,26.7 µM
same,GI50,HT29 colon,1.79 µM
same,TGI,HT29 colon,3.75 µM
same,GI50,IGROV1 ovarian,1.81 µM
same,TGI,IGROV1 ovarian,3.86 µM
same,GI50,K-562 leukemia,2.4 µM
same,TGI,K-562 leukemia,13.1 µM
same,GI50,KM12 colon,5.88 µM
same,TGI,KM12 colon,19.2 µM
same,GI50,LOX IMVI melanoma,1.11 µM
same,TGI,LOX IMVI melanoma,2.35 µM
same,GI50,M14 melanoma,2.15 µM
same,TGI,M14 melanoma,5.13 µM
same,GI50,MALME-3M melanoma,1.7 µM
same,TGI,MALME-3M melanoma,3.56 µM
same,GI50,MDA-MB-231 breast,1.64 µM
same,TGI,MDA-MB-231 breast,3.75 µM
same,GI50,MDA-MB-435,2.18 µM
same,TGI,MDA-MB-435,7.11 µM
same,GI50,MOLT-4 leukemia,3.03 µM
same,TGI,MOLT-4 leukemia,10.9 µM
same,GI50,NCI-H226 lung,1.73 µM
same,TGI,NCI-H226 lung,4.69 µM
same,GI50,NCI-H23 lung,1.75 µM
same,TGI,NCI-H23 lung,3.57 µM
same,GI50,NCI-H460 lung,3.97 µM
same,TGI,NCI-H460 lung,17.7 µM
same,GI50,NCI-H522 lung,1.38 µM
same,TGI,NCI-H522 lung,3.13 µM
same,GI50,NCI/ADR-RES ovarian,2.99 µM
same,TGI,NCI/ADR-RES ovarian,15.1 µM
same,GI50,OVCAR-3 ovarian,1.04 µM
same,TGI,OVCAR-3 ovarian,2.33 µM
same,GI50,OVCAR-4 ovarian,2.77 µM
same,TGI,OVCAR-4 ovarian,9.4 µM
same,GI50,OVCAR-5 ovarian,2.46 µM
same,TGI,OVCAR-5 ovarian,8.95 µM
same,GI50,OVCAR-8 ovarian,2.23 µM
same,TGI,OVCAR-8 ovarian,6.97 µM
same,GI50,PC-3 prostate,4.32 µM
same,TGI,PC-3 prostate,15.3 µM
same,GI50,RPMI-8226 leukemia,1.87 µM
same,TGI,RPMI-8226 leukemia,8.49 µM
same,GI50,RXF 393 renal,1.07 µM
same,TGI,RXF 393 renal,2.32 µM
same,GI50,SF-268 CNS,2.09 µM
same,TGI,SF-268 CNS,5.25 µM
same,GI50,SF-295 CNS,10.3 µM
same,TGI,SF-295 CNS,22.6 µM
same,GI50,SF-539 CNS,1.76 µM
same,TGI,SF-539 CNS,3.56 µM
same,GI50,SK-MEL-2 melanoma,2.45 µM
same,TGI,SK-MEL-2 melanoma,5.78 µM
same,GI50,SK-MEL-28 melanoma,1.75 µM
same,TGI,SK-MEL-28 melanoma,3.47 µM
same,GI50,SK-MEL-5 melanoma,1.72 µM
same,TGI,SK-MEL-5 melanoma,3.44 µM
same,GI50,SK-OV-3 ovarian,17.3 µM
same,TGI,SK-OV-3 ovarian,31.2 µM
same,GI50,SN12C renal,2.48 µM
same,TGI,SN12C renal,7.46 µM
same,GI50,SNB-19 CNS,10.8 µM
same,TGI,SNB-19 CNS,25.8 µM
same,GI50,SNB-75 CNS,2.97 µM
same,TGI,SNB-75 CNS,17.5 µM
same,GI50,SW-620 colon,1.24 µM
same,TGI,SW-620 colon,3.33 µM
same,GI50,T-47D breast,1.7 µM
same,TGI,T-47D breast,4.71 µM
same,GI50,TK-10 renal,1.71 µM
same,TGI,TK-10 renal,3.2 µM
same,GI50,U251 CNS,1.83 µM
same,TGI,U251 CNS,3.83 µM
same,GI50,UO-31 renal,1.23 µM
same,TGI,UO-31 renal,2.61 µM
CCCC(=O)OC1C(CO)OC(n2cc(F)c(=O)[nH]c2=O)C1F (configuration not stated),TGI,786-0 renal,> 100 µM
same,TGI,A498 renal,> 100 µM
same,TGI,A549 NSCLC,> 100 µM
same,TGI,ACHN renal,> 100 µM
same,TGI,BT-549 breast,> 100 µM
same,TGI,CAKI-1 renal,> 100 µM
same,TGI,CCRF-CEM leukemia,> 100 µM
same,TGI,COLO 205 colon,> 100 µM
same,TGI,DU-145 prostate,> 100 µM
same,TGI,EKVX NSCLC,> 100 µM
same,TGI,HCT-116 colon,> 100 µM
same,TGI,HCT-15 colon,> 100 µM
same,TGI,HL-60(TB) leukemia,> 100 µM
same,TGI,HOP-62 NSCLC,> 100 µM
same,TGI,HOP-92 NSCLC,> 100 µM
same,TGI,HS 578T breast,> 100 µM
same,TGI,HT29 colon,> 100 µM
same,TGI,IGROV1 ovarian,> 100 µM
same,TGI,KM12 colon,> 100 µM
same,TGI,LOX IMVI melanoma,> 100 µM
same,TGI,MALME-3M melanoma,> 100 µM
same,TGI,MCF7 breast,> 100 µM
same,TGI,MDA-MB-435,> 100 µM
same,TGI,MOLT-4 leukemia,> 100 µM
same,TGI,NCI-H226 lung,> 100 µM
same,TGI,NCI-H23 lung,> 100 µM
same,TGI,NCI-H522 lung,> 100 µM
same,TGI,NCI/ADR-RES ovarian,> 100 µM
same,TGI,OVCAR-3 ovarian,> 100 µM
same,TGI,OVCAR-4 ovarian,> 100 µM
same,TGI,OVCAR-5 ovarian,> 100 µM
same,TGI,OVCAR-8 ovarian,> 100 µM
same,TGI,PC-3 prostate,> 100 µM
same,TGI,RPMI-8226 leukemia,> 100 µM
same,TGI,RXF 393 renal,> 100 µM
same,TGI,SF-295 CNS,> 100 µM
same,TGI,SF-539 CNS,> 100 µM
same,TGI,SK-MEL-2 melanoma,> 100 µM
same,TGI,SK-MEL-28 melanoma,> 100 µM
same,TGI,SK-MEL-5 melanoma,> 100 µM
same,TGI,SK-OV-3 ovarian,> 100 µM
same,TGI,SN12C renal,> 100 µM
same,TGI,SNB-75 CNS,> 100 µM
same,TGI,SR leukemia,> 100 µM
same,TGI,SW-620 colon,> 100 µM
same,TGI,T-47D breast,> 100 µM
same,TGI,TK-10 renal,> 100 µM
same,TGI,UACC-257 melanoma,> 100 µM
same,TGI,UACC-62 melanoma,> 100 µM
same,TGI,UO-31 renal,> 100 µM
O=C1CC(c2ccccc2)n2cccc21 (configuration not stated),TGI,786-0 renal,> 100 µM
same,TGI,A498 renal,> 100 µM
same,TGI,A549 NSCLC,> 100 µM
same,TGI,ACHN renal,> 100 µM
same,TGI,CAKI-1 renal,> 100 µM
same,TGI,CCRF-CEM leukemia,> 100 µM
same,TGI,COLO 205 colon,> 100 µM
same,TGI,DU-145 prostate,> 100 µM
same,TGI,EKVX NSCLC,> 100 µM
same,TGI,HCC-2998 colon,> 100 µM
same,TGI,HCT-116 colon,> 100 µM
same,TGI,HCT-15 colon,> 100 µM
same,TGI,HL-60(TB) leukemia,> 100 µM
same,TGI,HOP-62 NSCLC,> 100 µM
same,TGI,HOP-92 NSCLC,> 100 µM
same,TGI,HS 578T breast,> 100 µM
same,TGI,HT29 colon,> 100 µM
same,TGI,IGROV1 ovarian,> 100 µM
same,TGI,K-562 leukemia,> 100 µM
same,TGI,KM12 colon,> 100 µM
same,TGI,LOX IMVI melanoma,> 100 µM
same,TGI,M14 melanoma,> 100 µM
same,TGI,MCF7 breast,> 100 µM
same,TGI,MDA-MB-231 breast,> 100 µM
same,TGI,MDA-MB-435,> 100 µM
same,TGI,NCI-H226 lung,> 100 µM
same,TGI,NCI-H23 lung,> 100 µM
same,TGI,NCI-H522 lung,> 100 µM
same,TGI,NCI/ADR-RES ovarian,> 100 µM
same,TGI,OVCAR-3 ovarian,> 100 µM
same,TGI,OVCAR-4 ovarian,> 100 µM
same,TGI,OVCAR-5 ovarian,> 100 µM
same,TGI,OVCAR-8 ovarian,> 100 µM
same,TGI,PC-3 prostate,> 100 µM
same,TGI,RPMI-8226 leukemia,> 100 µM
same,TGI,RXF 393 renal,> 100 µM
same,TGI,SF-268 CNS,> 100 µM
same,TGI,SF-295 CNS,> 100 µM
same,TGI,SF-539 CNS,> 100 µM
same,TGI,SK-MEL-2 melanoma,> 100 µM
same,TGI,SK-MEL-28 melanoma,> 100 µM
same,TGI,SK-MEL-5 melanoma,> 100 µM
same,TGI,SK-OV-3 ovarian,> 100 µM
same,TGI,SN12C renal,> 100 µM
same,TGI,SNB-19 CNS,> 100 µM
same,TGI,SNB-75 CNS,> 100 µM
same,TGI,SR leukemia,> 100 µM
same,TGI,SW-620 colon,> 100 µM
same,TGI,T-47D breast,> 100 µM
same,TGI,TK-10 renal,> 100 µM
same,TGI,U251 CNS,> 100 µM
same,TGI,UACC-257 melanoma,> 100 µM
same,TGI,UACC-62 melanoma,> 100 µM
same,TGI,UO-31 renal,> 100 µM
